Assays:
[1] = system: SNI mice; test: Mechanical allodynia (Dynamic Plantar Aesthesiometer, paw withdrawal threshold) in spared nerve injury mice; assay type: in vivo; conditions: for mechanical withdrawal, course over time: 5.0 mg/kg, day 7 to day 14; for MECHANICAL WITHDRAWAL THRESHOLD: SNI mice; for overall efficacy, mechanical withdrawal: both of the doses tested (2.5 and 5 mg/kg); for ability to treat neuropathic pain compared with CBD: mechanical withdrawal data
Method: (§1) Peripheral neuropathic pain is produced by multiple etiological factors that initiate a number of diverse mechanisms at different sites and in different disease states. Spared nerve injury (SNI) consists of partial ligation and transaction of the sciatic nerve which evolves in neuropathic pain whose typical manifestations are represented by thermal hyperalgesia and tactile allodynia.
(§2) Chronic pain symptoms are measured through changes in thermoceptive responses (which is indicative of thermal hyperalgesia) using Plantar Test Apparatus (Ugo Basile, Varese, Italy) and in mechanical paw withdrawal threshold (which is indicative of mechanical allodynia) by a Dynamic Plantar Aesthesiometer (Ugo Basile, Varese, Italy). Nociceptive responses were measured before and after surgery in groups of mice differently treated (vehicle or drugs different combinations).
(§3) The cannabinoids tested were CBG, CBC, CBDV, and THCV. […] The cannabinoids were prepared from whole plant extracts of cannabis plants which had been purified. The cannabinoids were dissolved in ringer/0.5% dimethyl sulfoxide (DMSO), for intraperitoneal (i.p.) administration.
(§4) Male CD-1 mice (35-40 g) were housed, 3 per cage, under controlled illumination (12:12 h light:dark cycle; light on 06.00 h) and environmental conditions (room temperature 20-22° C., humidity 55-60%) for at least 1 week before the commencement of experiments. Mouse chow and tap water were available ad libitum. The experimental procedures were approved by the Ethic Committee of the Second University of Naples. Animal care was in compliance with the IASP and European Community (E.C. L358/1 18/12/86) guidelines on the use and protection of animals in experimental research. All efforts were made to minimize animal suffering and to reduce the number of animals used.
(§5) Behavioural testing was performed before surgery to establish a baseline for comparison with post-surgical values. Mononeuropathy was induced according to the method of Bourquin and Decosterd (2006).
(§6) Mice were anaesthetized with sodium pentobarbital (60 mg/kg i.p.). The right hindlimb was immobilized in a lateral position and slightly elevated. Incision was made at mid-thigh level using the femur as a landmark. The sciatic nerve was exposed at mid-thigh level distal to the trifurcation and freed of connective tissue; the three peripheral branches (sural, common peroneal, and tibial nerves) of the sciatic nerve were exposed without stretching nerve structures.
(§7) Both tibial and common peroneal nerves were ligated and transacted together. A micro-surgical forceps with curved tips was delicately placed below the tibial and common peroneal nerves to slide the thread (5.0 silk, Ethicon, Johnson, and Johnson Intl, Brussels, Belgium) around the nerves. A tight ligation of both nerves was performed. The sural nerve was carefully preserved by avoiding any nerve stretch or nerve contact with surgical tools. Muscle and skin were closed in two distinct layers with silk 5.0 sutures.
(§8) Intense, reproducible and long-lasting thermal hyperalgesia and mechanical allodynia-like behaviors are measurable in the non-injured sural nerve skin territory. The SNI model offers the advantage of a distinct anatomical distribution with an absence of co-mingling of injured and non-injured nerve fibers distal to the lesion such as the injured and non-injured nerves and territories can be readily identified and manipulated for further analysis (i.e. behavioral assessment).
(§9) The sham procedure consisted of the same surgery without ligation and transection of the nerves.
(§10) The groups of mice were divided as follows, each cannabinoid tested has its own group of mice:
(§11) The cannabinoids were dosed daily for 14 days. Doses for all cannabinoids tested were: 2.5 and 5.0 mg/Kg. Vehicle solution was 0.5% DMSO in ringer solution.
Mechanical allodynia was measured by using Dynamic Plantar Anesthesiometer (Ugo Basile, Varese, Italy). […]

[2] = system: SNI mice; test: Thermal hyperalgesia (Plantar Test Apparatus, paw withdrawal latency) in spared nerve injury mice; assay type: in vivo; conditions: for dose-dependence of effect on thermal withdrawal latency: 2.5 vs 5 mg/kg; for ability to treat neuropathic pain compared with CBD: thermal withdrawal data
Method: as §1, §2, §3, §4, §5, §6, §7, §8, §9, §10, §11
Thermal hyperalgesia was evaluated by using a Plantar Test Apparatus (Ugo Basile, Varese, Italy). […]

[3] = system: chronic constriction injury of the rat sciatic nerve; conditions: administered as a purified compound; Costa et al., 2004; cited from earlier work
[4] = system: patients; conditions: cited from earlier work
[5] = SNI mice, 2.5 mg/kg i.p. daily, DAY 3
[6] = SNI mice, 2.5 mg/kg i.p. daily, DAY 7
[7] = SNI mice, 2.5 mg/kg i.p. daily, DAY 14
[8] = SNI mice, 5 mg/kg i.p. daily, DAY 3
[9] = SNI mice, 5 mg/kg i.p. daily, DAY 7
[10] = SNI mice, 5 mg/kg i.p. daily, DAY 14

Row | Compound | mechanical withdrawal, course over time [1] | MECHANICAL WITHDRAWAL THRESHOLD ([1]; 2.5 mg/kg i.p. daily, DAY 3) [g] | MECHANICAL WITHDRAWAL THRESHOLD ([1]; 2.5 mg/kg i.p. daily, DAY 7) [g] | MECHANICAL WITHDRAWAL THRESHOLD ([1]; 2.5 mg/kg i.p. daily, DAY 14) [g] | MECHANICAL WITHDRAWAL THRESHOLD ([1]; 5 mg/kg i.p. daily, DAY 3) [g] | MECHANICAL WITHDRAWAL THRESHOLD ([1]; 5 mg/kg i.p. daily, DAY 7) [g] | MECHANICAL WITHDRAWAL THRESHOLD ([1]; 5 mg/kg i.p. daily, DAY 14) [g] | overall efficacy, mechanical withdrawal [1] | overall efficacy, thermal withdrawal ([2]; 2.5 mg/kg) | THERMAL WITHDRAWAL LATENCY ([2]; 5.0 mg/kg, day 3) | dose-dependence of effect on thermal withdrawal latency [2] | THERMAL WITHDRAWAL LATENCY [2, 5] [s] | THERMAL WITHDRAWAL LATENCY [2, 6] [s] | THERMAL WITHDRAWAL LATENCY [2, 7] [s] | THERMAL WITHDRAWAL LATENCY [2, 8] [s] | THERMAL WITHDRAWAL LATENCY [2, 9] [s] | THERMAL WITHDRAWAL LATENCY [2, 10] [s] | ability to treat neuropathic pain compared with CBD [1] | overall efficacy, thermal withdrawal ([2]; 5.0 mg/kg) | ability to treat neuropathic pain compared with CBD [2] | other results
1 | CCCCCc1cc(O)c2c(c1)OC(C)(CCC=C(C)C)C=C2 (stereo not drawn) [CBC, cannabichromene] | large increase at day 7; however this latency decreased again at the 14 day time point | 2.4 | 4.5 | 5.0 | 5.1 | 9.7 | 5.2 | relatively ineffective | relatively ineffective | able to increase the amount of time before the animal withdrew its paw | do not appear to be dose-dependent | 3.7 | 4.8 | 5.2 | 6.0 | 7.0 | 7.2 | – | – | – | –
2 | C=C(C)[C@@H]1CCC(C)=C[C@H]1c1c(O)cc(CCCCC)cc1O [CBD, cannabidiol, reference compound] | large increase at day 7; however this latency decreased again at the 14 day time point | 2.2 | 4.8 | 5.2 | 5.0 | 8.6 | 5.3 | relatively ineffective | relatively ineffective | able to increase the amount of time before the animal withdrew its paw | do not appear to be dose-dependent | 3.5 | 4.2 | 5.6 | 5.8 | 7.0 | 7.5 | – | – | – | relief of neuropathic pain [3]: can partially relieve neuropathic pain
3 | C=C(C)[C@@H]1CCC(C)=C[C@H]1c1c(O)cc(CCC)cc1O [CBDV, cannabidivarin] | – | 6.8 | 7.0 | 7.8 | 6.7 | 6.6 | 7.7 | highest mechanical withdrawal latency of all the cannabinoids | good efficacy | – | dose-dependent effects were observed | 3.8 | 6.4 | 6.5 | 4.0 | 7.2 | 11.0 | superior to CBD | most effective | superior to CBD | mechanical withdrawal latency ([1]; 2.5 mg/kg, day 3): dramatic increase; THERMAL WITHDRAWAL LATENCY ([2]; 5.0 mg/kg, 14 days): large increase
4 | CCCCCc1cc(O)c(C/C=C(\C)CCC=C(C)C)c(O)c1 [CBG, cannabigerol] | – | 3.4 | 6.1 | 7.8 | 6.0 | 6.1 | 7.8 | good efficacy | highest thermal withdrawal latency of all the cannabinoids | able to increase the amount of time before the animal withdrew its paw | do not appear to be dose-dependent | 5.5 | 5.4 | 7.0 | 7.8 | 7.6 | 7.5 | superior to CBD | – | superior to CBD | THERMAL WITHDRAWAL LATENCY ([2]; 2.5 mg/kg, day 3): increase in the amount of thermal withdrawal latency
5 | CCCc1cc(O)c2c(c1)OC(C)(C)[C@@H]1CCC(C)=C[C@@H]21 [THCV, tetrahydrocannabivarin] | – | 3.0 | 6.2 | 7.5 | 3.2 | 8.5 | 9.8 | good efficacy | good efficacy | – | do not appear to be dose-dependent | 3.8 | 9.8 | 7.6 | 3.9 | 10.5 | 11.9 | superior to CBD | most effective | superior to CBD | thermal withdrawal latency, course over time ([2]; 2.5 mg/kg, day 7 to day 14): large increase at the day 7 time point which then decreases after a further 7 days; THERMAL WITHDRAWAL LATENCY ([2]; 5.0 mg/kg, 14 days): large increase
6 | NC(=O)N1c2ccccc2C=Cc2ccccc21 [carbamezepine] | – | – | – | – | – | – | – | – | – | – | – | – | – | – | – | – | – | – | – | – | decrease in white blood cell count ([4]; in 7% of patients): 25%; increase in the risk of blood dyscrasias ([4]; post-marketing studies, patients taking carbamezepine): five- to eight-fold

Reference: patent US9895342B2, “Cannabinoids for use in the treatment of neuropathic pain” (GW Pharma Limited, priority 2011, dated 2018)
